Tested on: myelofibrosis
Experiment: treatment of myelofibrosis, case history
Assay type: in vivo, human
Details: following initiation of treatment; approximately every 10 days before treatment
Description: This example illustrates the treatment of symptoms associated with myelofibrosis. A patient suffering from myelofibrosis was treated with a quercetin CD formulation. The formulation was prepared from a powder of quercetin (Glanbia Nutritionals) formed as an inclusion complex with gamma cyclodextrin, dried and mixed with amylase powder. At the initiation of quercetin CD treatment, the patient was in need of blood transfusions approximately every 10 days. Following initiation of the quercetin CD treatment, the patient was able to go 20 days between transfusions.

## O=c1c(O)c(-c2ccc(O)c(O)c2)oc2cc(O)cc(O)c12 [quercetin]
  interval between blood transfusions: did not get this result

Reference: patent publication US12285455B2, “Controlled-release and stratified cyclodextrin inclusion complex vehicles” (CZAP RESEARCH AND DEVELOPMENT, LLC., priority 2016, dated 2025)
